Consider two compounds from patent US6541482B2, “Carbocyclic nucleoside agents useful as selective inhibitors of proinflammatory cytokines” (priority 1993, dated 2003).

The subject of one experiment is TNF-α. In words: Inhibition of TNF-α production by LPS-stimulated human monocyte-derived macrophages. The format is cell-based. Particulars: Macrophage; monocyte-derived macrophages from human peripheral blood, stimulated with LPS, 18 hours of culture; dose response 500 μM-0.1 μM; read-out: IC50 for inhibiting TNF-α levels. The method, then:
Monocyte-derived macrophages stimulated with bacterial lipopolysaccharide (LPS) produce high levels of TNF-α (14.87±1.02 ηg/mL) during 18 hours of culture.

In the next experiment the test system is lethal effects of LPS. In words: D-galactosamine animal model of septic shock (protection against lethal effects of LPS). Particulars: treated about 1 hour before i.p. challenge of D-galactosamine and LPS, 100 mg/kg i.p. for the azido compound; for protection: mice, vehicle HBSS 0% protection; for mice killed: vehicle HBSS 6 out of 6 killed by 18 hours. The class given is in vivo. Here is the method:
Mice treated with the vehicle Hanks Balanced Salt Solution (HBSS) approximately 1 hour before intraperitoneal (i.p.) challenge of D-galactosamine and LPS, succumb to disease by 18 hours after challenge (e.g. 6 out of 6 mice killed; 0% protection). […] Positive-control PTX afforded […] protection in this model (3 out of 6 mice killed; 50% protection).

In the case of `[N-]=[N+]=NC1CCC(n2cnc3c(N)ncnc32)C1` (stereo not drawn) [1R,3R-trans-1-(9-adenyl)-3-azidocyclopentane], the IC50 in the experiment on TNF-α is 5.48 ± 1.3 µM. Besides, in the experiment with lethal effects of LPS, the protection is reported as 66% and the mice killed is 2 out of 6.
For `CC(=O)CCCCn1c(=O)c2c(ncn2C)n(C)c1=O` [Pentoxifylline], in that order: 26.3 ± 16 µM, 50% and 3 out of 6.

Broadly, the IC50 is the midpoint of a concentration-inhibition curve.
